Legend:
Assay in all cases: Chemoproteomic competition pulldown assay (co-competed CoREST partner)
Format in all cases: binding
HMG20B = test system: HMG20B
Description: (§1) To identify proteins directly bound by lipoic acid, we employed a chemoproteomic competition assay. Briefly, (R/S)-LA was immobilized on sepharose beads via an amidation reaction to form an affinity matrix (abbreviated as iL; Fig. 1a). This affinity matrix can be incubated with cell lysate to pull down potential LA or LM target proteins and identify these targets via bottom-up proteomics. In a competition assay, free LA or LM were incubated with lysate at different concentrations before pulling down and quantifying target proteins. […] (Fig. 1b, see “Methods” for details). […] The lysate buffer used in this assay contains 1 mM DTT to mimic the intracellular reductive milieu and to reduce lipoic acid and LM. […] Additional competition assays performed in lung adenocarcinoma cell A549 lysate also identified HDAC1, HDAC2, and HDAC6 as targets (Supplementary Fig. 1b). Amongst the three cell lines tested, HDACs were the only confidently identified targets across the 1500–3000 proteins quantified in these assays. […] We validated the results by analogous pulldown competition assays using two other affinity matrices prepared via the immobilization of either the HDAC inhibitor Quisinostat (iQ) and an analog of the class IIa HDAC inhibitor Bürli’s 31[14] (iC)[12]. We have previously shown that these affinity matrices specifically bind to the active sites of HDACs and have used them for HDACi selectivity profiling. Indeed, binding of (R/S)-LA and (R/S)-LM to HDAC1, HDAC2, HDAC3, HDAC6, and, to a lesser extent, HDAC8 was confirmed in these assays (Supplementary Fig. 1c, d). No binding to class IIa HDACs or the recently discovered common HDAC inhibitor off-target MBLAC2 was observed (Supplementary Fig. 1e)[12]. […] This observation might reflect electrostatic repulsion between the HDAC10 active site gate-keeper glutamic acid residues[15],[16] and the terminal carboxylic acid of LA.
(§2) To assess the degree of protein depletion from lysates by the affinity matrix, a second pulldown (PDPD) with fresh beads was performed using the unbound protein fraction from the vehicle control flow through. The beads were washed (1 × 1 mL of lysis buffer without inhibitors and only 0.4% Igepal, 2 × 2 mL of lysis buffer without inhibitors and only 0.2% Igepal), and captured proteins were denatured with 8 M urea buffer, alkylated with 55 mM chloroacetamide and digested with Trypsin according to standard procedures. The resulting peptides were desalted on a C18 filter plate (Sep-Pak® tC18 µElution Plate, Waters), vacuum dried, and stored at −20 °C until LC–MSMS measurement.
(§3) For the competition assays, relative binding was calculated based on the protein intensity ratio to the DMSO control for every single inhibitor concentration. EC50 values were derived from a four-parameter log-logistic regression with variable slope (constrain: bottom > 0). The obtained EC50 values were multiplied with a protein-dependent correction factor (cf), resulting in the apparent Kd value (Kd^app). The correction factor is determined by calculating the ratio of the protein intensity of two consecutive pulldowns of the vehicle control sample[13]. Targets of the inhibitors were annotated manually according to published procedures[12],[46],[47]. […] Additionally, the number of unique peptides and MSMS counts per condition were taken into account. Positive target binding across several independent experiments performed with different cell lysates further substantiated our confidence for a true positive drug-target binding event.

RCOR3 = test system: RCOR3
Description: as §1, §2, §3

GSE1 = test system: GSE1
Description: as §1, §2, §3

KDM1A = test system: KDM1A
Description: as §1, §2, §3

RCOR1 = test system: RCOR1
Description: as §1, §2, §3

[1] = iL, A549 lysate, log10 M -4.52288
[2] = iL, A549 lysate, log10 M -5.52288
[3] = iL, A549 lysate, log10 M -6.52288
[4] = iL, A549 lysate, log10 M -7.52288
[5] = iL, A549 lysate, log10 M -8.52288
[6] = iQ, SW620 lysate, log10 M -3.52288
[7] = iQ, SW620 lysate, log10 M -4.52288
[8] = iQ, SW620 lysate, log10 M -5.52288
[9] = iQ, SW620 lysate, log10 M -6.52288
[10] = iL, SW620 lysate, log10 M -3.52288
[11] = iL, SW620 lysate, log10 M -4.52288
[12] = iL, SW620 lysate, log10 M -5.52288
[13] = iL, SW620 lysate, log10 M -6.52288

O=C(O)CCCCC1CCSS1 (racemic) [(R/S)-LA, (R/S)-lipoic acid]
relative binding vs DMSO (HMG20B; iL, A549 lysate, log10 M -4): 0.09481 | relative binding vs DMSO (HMG20B; [1]): 0 | relative binding vs DMSO (HMG20B; iL, A549 lysate, log10 M -5): 0 | relative binding vs DMSO (HMG20B; [2]): 0 | relative binding vs DMSO (HMG20B; iL, A549 lysate, log10 M -6): 0.5309 | relative binding vs DMSO (HMG20B; [3]): 1.1771 | relative binding vs DMSO (HMG20B; [4]): 1.54 | relative binding vs DMSO (HMG20B; iL, A549 lysate, log10 M -8): 1.531 | relative binding vs DMSO (HMG20B; [5]): 0.9986 | relative binding vs DMSO (HMG20B; [6]): 0.2338 | relative binding vs DMSO (HMG20B; iQ, SW620 lysate, log10 M -4): 0.0385 | relative binding vs DMSO (HMG20B; [7]): 0.4714 | relative binding vs DMSO (HMG20B; iQ, SW620 lysate, log10 M -5): 0.5482 | relative binding vs DMSO (HMG20B; [8]): 0.8626 | relative binding vs DMSO (HMG20B; iQ, SW620 lysate, log10 M -6): 0.8649 | relative binding vs DMSO (HMG20B; [9]): 1.158 | relative binding vs DMSO (HMG20B; iQ, SW620 lysate, log10 M -7): 1.067 | relative binding vs DMSO (RCOR3; iL, A549 lysate, log10 M -4): 0 | relative binding vs DMSO (RCOR3; [1]): 0 | relative binding vs DMSO (RCOR3; iL, A549 lysate, log10 M -5): 0 | relative binding vs DMSO (RCOR3; [2]): 0 | relative binding vs DMSO (RCOR3; iL, A549 lysate, log10 M -6): 0.7701 | relative binding vs DMSO (RCOR3; [3]): 1.109 | relative binding vs DMSO (RCOR3; [4]): 1.217 | relative binding vs DMSO (RCOR3; iL, A549 lysate, log10 M -8): 1.199 | relative binding vs DMSO (RCOR3; [5]): 1.533 | relative binding vs DMSO (RCOR3; [6]): 0.06142 | relative binding vs DMSO (RCOR3; iQ, SW620 lysate, log10 M -4): 0.2749 | relative binding vs DMSO (RCOR3; [7]): 0.55 | relative binding vs DMSO (RCOR3; iQ, SW620 lysate, log10 M -5): 0.4741 | relative binding vs DMSO (RCOR3; [8]): 0.7307 | relative binding vs DMSO (RCOR3; iQ, SW620 lysate, log10 M -6): 0.7404 | relative binding vs DMSO (RCOR3; [9]): 0.7642 | relative binding vs DMSO (RCOR3; iQ, SW620 lysate, log10 M -7): 0.7542 | relative binding vs DMSO (GSE1; iL, A549 lysate, log10 M -4): 0.002926 | relative binding vs DMSO (GSE1; [1]): 0.03688 | relative binding vs DMSO (GSE1; iL, A549 lysate, log10 M -5): 0.08918 | relative binding vs DMSO (GSE1; [2]): 0.4136 | relative binding vs DMSO (GSE1; iL, A549 lysate, log10 M -6): 0.8054 | relative binding vs DMSO (GSE1; [3]): 1.293 | relative binding vs DMSO (GSE1; [4]): 1.282 | relative binding vs DMSO (GSE1; iL, A549 lysate, log10 M -8): 1.353 | relative binding vs DMSO (GSE1; [5]): 1.278 | relative binding vs DMSO (GSE1; [10]): 0 | relative binding vs DMSO (GSE1; iL, SW620 lysate, log10 M -4): 0 | relative binding vs DMSO (GSE1; [11]): 0 | relative binding vs DMSO (GSE1; iL, SW620 lysate, log10 M -5): 0.09089 | relative binding vs DMSO (GSE1; [12]): 0.3606 | relative binding vs DMSO (GSE1; iL, SW620 lysate, log10 M -6): 1.287 | relative binding vs DMSO (GSE1; [13]): 0.7924 | relative binding vs DMSO (GSE1; iL, SW620 lysate, log10 M -7): 1.217 | relative binding vs DMSO (GSE1; [6]): 0.1048 | relative binding vs DMSO (GSE1; iQ, SW620 lysate, log10 M -4): 0.1152 | relative binding vs DMSO (GSE1; [7]): 0.3197 | relative binding vs DMSO (GSE1; iQ, SW620 lysate, log10 M -5): 0.4493 | relative binding vs DMSO (GSE1; [8]): 0.5952 | relative binding vs DMSO (GSE1; iQ, SW620 lysate, log10 M -6): 0.7905 | relative binding vs DMSO (GSE1; [9]): 0.8177 | relative binding vs DMSO (GSE1; iQ, SW620 lysate, log10 M -7): 0.7924 | relative binding vs DMSO (KDM1A; iL, A549 lysate, log10 M -4): 0.08234 | relative binding vs DMSO (KDM1A; [1]): 0.1175 | relative binding vs DMSO (KDM1A; iL, A549 lysate, log10 M -5): 0.1963 | relative binding vs DMSO (KDM1A; [2]): 0.3595 | relative binding vs DMSO (KDM1A; iL, A549 lysate, log10 M -6): 0.6514 | relative binding vs DMSO (KDM1A; [3]): 1.056 | relative binding vs DMSO (KDM1A; [4]): 0.9439 | relative binding vs DMSO (KDM1A; iL, A549 lysate, log10 M -8): 1.171 | relative binding vs DMSO (KDM1A; [5]): 1.264 | relative binding vs DMSO (KDM1A; [10]): 0 | relative binding vs DMSO (KDM1A; iL, SW620 lysate, log10 M -4): 0 | relative binding vs DMSO (KDM1A; [11]): 0 | relative binding vs DMSO (KDM1A; iL, SW620 lysate, log10 M -5): 0.08571 | relative binding vs DMSO (KDM1A; [12]): 0.9092 | relative binding vs DMSO (KDM1A; iL, SW620 lysate, log10 M -6): 1.31 | relative binding vs DMSO (KDM1A; [13]): 1.608 | relative binding vs DMSO (KDM1A; iL, SW620 lysate, log10 M -7): 1.68 | relative binding vs DMSO (KDM1A; [6]): 0.1418 | relative binding vs DMSO (KDM1A; iQ, SW620 lysate, log10 M -4): 0.1346 | relative binding vs DMSO (KDM1A; [7]): 0.3513 | relative binding vs DMSO (KDM1A; iQ, SW620 lysate, log10 M -5): 0.5517 | relative binding vs DMSO (KDM1A; [8]): 0.6829 | relative binding vs DMSO (KDM1A; iQ, SW620 lysate, log10 M -6): 0.6182 | relative binding vs DMSO (KDM1A; [9]): 0.6303 | relative binding vs DMSO (KDM1A; iQ, SW620 lysate, log10 M -7): 0.7048 | relative binding vs DMSO (RCOR1; iL, A549 lysate, log10 M -4): 0.04582 | relative binding vs DMSO (RCOR1; [1]): 0.0556 | relative binding vs DMSO (RCOR1; iL, A549 lysate, log10 M -5): 0.1265 | relative binding vs DMSO (RCOR1; [2]): 0.344 | relative binding vs DMSO (RCOR1; iL, A549 lysate, log10 M -6): 0.6862 | relative binding vs DMSO (RCOR1; [3]): 1.238 | relative binding vs DMSO (RCOR1; [4]): 0.8815 | relative binding vs DMSO (RCOR1; iL, A549 lysate, log10 M -8): 1.065 | relative binding vs DMSO (RCOR1; [5]): 1.673 | relative binding vs DMSO (RCOR1; [10]): 0 | relative binding vs DMSO (RCOR1; iL, SW620 lysate, log10 M -4): 0 | relative binding vs DMSO (RCOR1; [11]): 0.2767 | relative binding vs DMSO (RCOR1; iL, SW620 lysate, log10 M -5): 0.2629 | relative binding vs DMSO (RCOR1; [12]): 0.4301 | relative binding vs DMSO (RCOR1; iL, SW620 lysate, log10 M -6): 0.8481 | relative binding vs DMSO (RCOR1; [13]): 1.192 | relative binding vs DMSO (RCOR1; iL, SW620 lysate, log10 M -7): 0.8783 | relative binding vs DMSO (RCOR1; [6]): 0.1176 | relative binding vs DMSO (RCOR1; iQ, SW620 lysate, log10 M -4): 0.1659 | relative binding vs DMSO (RCOR1; [7]): 0.5043 | relative binding vs DMSO (RCOR1; iQ, SW620 lysate, log10 M -5): 0.4267 | relative binding vs DMSO (RCOR1; [8]): 0.9917 | relative binding vs DMSO (RCOR1; iQ, SW620 lysate, log10 M -6): 1.001 | relative binding vs DMSO (RCOR1; [9]): 0.9723 | relative binding vs DMSO (RCOR1; iQ, SW620 lysate, log10 M -7): 0.6892

Reference: paper PMC10272112 (Nature Communications, 2023)
